Measurements reported in patent US11548903B2, “Bicyclic thiazine and oxazine derivatives as beta-secretase inhibitors and methods of use” (AMGEN INC., priority 2016, dated 2023).
Values belong to the compound of their own block, whether it stands above or below them.

Experiments:
[1] = system: pigment epithelium of the rat's eye; settings: higher compound dose given for three months; cited from earlier work
Aβ peptide in CSF = settings: oral dose of 95 mg once daily; cited from earlier work
[2] = system: CSF Aβ peptide concentrations; settings: cited from earlier work
[3] = system: Aβ peptide levels in the CSF and plasma; settings: nonhuman primates; cited from earlier work
[4] = system: β-secretase (Aβ peptide levels); experiment: In vivo inhibition of β-secretase (Aβ reduction in rat CSF and brain)
Text: In vivo Inhibition of β-Secretase
Several animal models, including mouse, rat, dog, and monkey, may be used to screen for inhibition of β-secretase activity in vivo following administration of a test compound. […] Animals to be used in this experiment can be wild type, transgenic, or gene knockout animals. For example, the Tg2576 mouse model, prepared and conducted as described in Hsiao et al., Science 274:99-102 (1996), and other non-transgenic or gene knockout animals are useful to analyze in vivo inhibition of Aβ peptide production in the presence of test compounds.
Generally, 2 to 18 month old Tg2576 mice, gene knockout mice or non-transgenic animals are administered test compounds formulated in vehicles, such as cyclodextran, phosphate buffers, hydroxypropyl methylcellulose or other suitable vehicles. One to twenty-four hours following the administration of compound, animals are sacrificed, and brains as well as cerebrospinal fluid (CSF) and plasma are removed for analysis of Aβ levels and test compound concentrations (Dovey et al., J. Neurochem., 76(1):173-181 (2001)) Beginning at time 0, animals are administered by oral gavage, or other means of delivery such as intravenous injection, an inhibitory test compound of up to 100 mg/kg in a standard, conventional formulation, such as 2% hydroxypropyl methylcellulose, 1% Tween80. A separate group of animals receive 2% hydroxypropyl methylcellulose, 1% Tween80 alone, containing no test compound, and serve as a vehicle-control group. At the end of the test period, animals are sacrificed and brain tissues, plasma or cerebrospinal fluid are collected. Brains are either homogenized in 10 volumes (w/v) of 0.2% diethylamine (DEA) in 50 mM NaCl (Best et al., J. Pharmacol. Exp. Ther. 313(2):902-908 (2005)), or in 10 volumes of 0.5% TritonX-100 in Tris-buffered saline (pH at about 7.6). Homogenates are centrifuged at 355,000 g, 4° C. for 30 minutes. CSF or brain supernatants are then analyzed for the presence of Aβ by specific sandwich ELISA assays based on ECL (Electrochemiluminescence) technology. For example, rat Aβ40 is measured using biotinylated-4G8 (Signet) as a capture antibody and Fab40 (an in-house antibody specific to the C-terminal of Aβ40) as a detection antibody. For example, 4 hours after administration of 30 mg/kg oral dose of the test compound in 2% hydroxypropyl methylcellulose, 1% Tween80 (pH2.2) to 200 g male Sprague Dawley rats, Aβ peptide levels are measured for reduction by X % and Y % in cerebrospinal fluid and brain, respectively, when compared to the levels measured in the vehicle-treated or control mice. Alternatively, the antibody sold with the V-PLEX abeta40 Peptide (4G8) Kit, commercially available from Meso Scale Diagnostics (MSD), Rockville, Md. 20850-3173 (Catalog NO. K150SJE-1) may be used in this assay.
The results presented in Table 3 were obtained using certain compounds described herein in the in vivo protocol described above.

[5] = system: BACE1 (Aβ40 from cells stably expressing Amyloid Precursor Protein); experiment: In vitro BACE1 cell-based assay (Aβ40 in conditioned medium, HTRF); settings: Aβ40, 24 h incubation; read-out: BACE1 Cell IC50
Summary of the method: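 APP-stably expressing cells treated with compounds in 22-point dose response from 62.5 μM top concentration (0.625% final DMSO) for 24 h at 37° C in DMEM/10% FBS. Secreted Aβ40 in conditioned medium quantified by HTRF using ConfAb40 and biotinylated 6E10 with streptavidin-APC, 30-60 min at 23° C.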

Recombinant CatD = Recombinant CatD (Homo sapiens (Human), UniProt P07339); experiment: In vitro enzymatic Cathepsin D (CatD) FRET assay; type: biochemical; settings: read-out: Cat D Enzyme IC50
Recombinant CatD, sequence (P07339 65-412): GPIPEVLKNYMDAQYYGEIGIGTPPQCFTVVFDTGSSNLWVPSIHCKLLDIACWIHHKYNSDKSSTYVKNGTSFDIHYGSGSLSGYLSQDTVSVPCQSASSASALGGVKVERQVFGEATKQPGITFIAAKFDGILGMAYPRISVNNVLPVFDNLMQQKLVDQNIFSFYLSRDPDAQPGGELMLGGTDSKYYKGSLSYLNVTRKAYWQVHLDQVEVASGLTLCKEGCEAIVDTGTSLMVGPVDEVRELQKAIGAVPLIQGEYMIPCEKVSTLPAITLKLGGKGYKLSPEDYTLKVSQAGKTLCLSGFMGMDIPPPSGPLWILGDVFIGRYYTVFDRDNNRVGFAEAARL
Summary of the method: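 Recombinant human CatD, expressed in CHO cells, was run in 0.05 M citrate pH 3.5 with 10% DMSO final and 5 mM CHAPS. Reactions were started with 20 nM quenched FRET peptide and incubated 1 h. Tris buffer was added to neutralize the pH before reading fluorescence at ex 500/em 580 nm.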

human recombinant BACE2 = human recombinant BACE2 (Homo sapiens (Human), UniProt Q9Y5Z0); experiment: In vitro enzymatic BACE2 FRET assay; type: biochemical; settings: read-out: BACE2 Enzyme IC50
human recombinant BACE2, sequence (Q9Y5Z0 63-518): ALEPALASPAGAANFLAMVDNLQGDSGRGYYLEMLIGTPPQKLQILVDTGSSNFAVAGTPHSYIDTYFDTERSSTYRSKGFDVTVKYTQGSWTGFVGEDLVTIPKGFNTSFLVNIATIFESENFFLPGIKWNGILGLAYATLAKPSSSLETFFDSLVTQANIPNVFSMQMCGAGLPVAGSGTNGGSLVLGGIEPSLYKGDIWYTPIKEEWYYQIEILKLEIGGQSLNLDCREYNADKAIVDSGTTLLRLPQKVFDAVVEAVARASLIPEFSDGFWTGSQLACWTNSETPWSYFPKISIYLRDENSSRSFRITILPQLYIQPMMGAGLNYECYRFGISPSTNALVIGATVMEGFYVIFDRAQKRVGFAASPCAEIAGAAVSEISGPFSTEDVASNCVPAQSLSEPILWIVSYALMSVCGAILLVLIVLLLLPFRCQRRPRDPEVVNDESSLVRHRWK
Summary of the method: (§1)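 Ni-NTA-purified recombinant human BACE1 or BACE2 cleaved a 50 nM internally quenched peptide FRET substrate for one hour. Reactions were stopped with tris buffer raising pH to neutrality. Fluorescence was read at ex 488/em 590 nm.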

human recombinant BACE1 = human recombinant BACE1 (Homo sapiens (Human), UniProt P56817); experiment: In vitro enzymatic BACE1 FRET assay; type: biochemical; settings: read-out: BACE1 Enzyme IC50
human recombinant BACE1, sequence (P56817 46-501): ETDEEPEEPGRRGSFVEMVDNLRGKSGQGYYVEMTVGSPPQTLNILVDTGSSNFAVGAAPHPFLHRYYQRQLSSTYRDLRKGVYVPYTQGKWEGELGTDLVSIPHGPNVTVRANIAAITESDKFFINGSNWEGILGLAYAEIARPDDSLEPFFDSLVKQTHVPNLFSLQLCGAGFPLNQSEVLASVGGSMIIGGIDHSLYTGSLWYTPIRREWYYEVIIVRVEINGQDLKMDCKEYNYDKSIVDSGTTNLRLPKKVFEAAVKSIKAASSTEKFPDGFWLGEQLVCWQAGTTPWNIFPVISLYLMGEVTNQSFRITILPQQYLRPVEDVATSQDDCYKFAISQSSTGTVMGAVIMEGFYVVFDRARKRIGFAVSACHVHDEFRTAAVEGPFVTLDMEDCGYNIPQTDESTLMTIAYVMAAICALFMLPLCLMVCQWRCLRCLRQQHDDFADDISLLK
Summary of the method: as §1

Structure (SMILES): C[C@@]1(c2cc(-c3cncnc3)c(F)cc2F)CCSC(N)=N1 [LY 2811376]
eye toxicity finding [1]: damaged the pigment epithelium of the rat's eye

Structure (SMILES): C[C@@]1(c2cc(NC(=O)c3ccc(C#N)cn3)ccc2F)C=CSC(N)=N1 [JNJ-54861911]
Aβ peptide reduction in CSF (Aβ peptide in CSF): up to 95%

Structure (SMILES): CN1C(=N)N[C@](C)(c2cc(NC(=O)c3ccc(F)cn3)ccc2F)CS1(=O)=O [MK-8931]
CSF Aβ peptide concentrations ([2]; human, in vivo): significantly reduced CSF Aβ peptide concentrations in a sustained and dose-dependent manner | safety profile ([2]; phase I clinical trials): excellent safety profile with no immediately noticeable side effects

Structure (SMILES): C[C@H]1OC[C@]2(c3cc(NC(=O)c4cnc(C(F)F)cn4)ccc3F)N=C(N)SC[C@H]12 [Example E2609]
Aβ peptide levels in the CSF and plasma [3]: significant reduction in Aβ peptide levels in the CSF and plasma

IC50 [5]: 19.8 nM | IC50 (Recombinant CatD): 125000 nM | IC50 (human recombinant BACE2): 394 nM | IC50 (human recombinant BACE1): 7.45 nM
Structure (SMILES): C#CCOc1cnc(/C(F)=C/c2ccc(F)c([C@]34CN(C(C)=O)C[C@H]3CSC(N)=N4)c2)cn1 [Example 118, 1-((4aR,7aS)-2-amino-7a-(2-fluoro-5-((Z)-2-fluoro-2-(5-(prop-2-yn-1-yloxy)pyrazin-2-yl)vinyl)phenyl)-4a,5,7,7a-tetrahydropyrrolo[3,4-d][1,3]thiazin-6(4H)-yl)ethanone]
% Aβ reduction in rat CSF at 10 mpk ([4]; rat CSF): 43% | % Aβ reduction in rat brain at 10 mpk ([4]; rat brain): 43%
